The text below walks through data of patent US20100048521A1, “COMBINATION OF A GLUCO-KORTICOID AND BETA-CYCLODEXTRIN CONJUGATED VITAMIN A-DERIVATE COMPLEX” (priority 2006, published 2010).

This assay has as its system skin (epidermis+dermis) of healthy female volunteers. In words: Comparative study of skin atrophy: skin thickness and density by ultrasound (Dermascan C) after topical treatment of the inner arm. The class given is in vivo, human. An excerpt: Comparative Study of Hydrocortisone and Hydrocortisone Combined with β-cyclodextrin Conjugated Retinyl Palmitate Complex with Respect to the Development of Skin Atrophy
The study was run according to the protocol described below and was approved by the local regional ethics committee before the study was initiated.
The study included 10 healthy female volunteers. The average age was 43.2 years. They received treatment with hydrocortisone cream 1% on the inner part of one arm (right or left) once daily for 4 weeks. […] On the opposite arm they were treated with hydrocortisone cream 1% and after 10 minutes Nourella Cream containing β-cyclodextrin conjugated retinyl palmitate complex was applied (Pharma Medico; Aarhus, Denmark). Treatments were randomized so that half of the participants treated the right arm with hydrocortisone and the left with the combination and vice versa.
The skin was inspected clinically in the beginning and at the end of the study and objective measurement of the skin thickness and density was done by ultrasound (Dermascan C).

Where [1] appears, read: after 4 weeks of once daily topical treatment, inner arm, ultrasound, ns.

Consider `C[C@]12CCC(=O)C=C1CC[C@@H]1[C@@H]2[C@@H](O)C[C@@]2(C)[C@H]1CC[C@]2(O)C(=O)CO` [Hydrocortisone, hydrocortisone], for which the “Average reduction of skin thickness (epidermis+dermis)” value (4 weeks once daily topical, change vs baseline, p=0.07 between arms) is recorded as 15%. Also, under setting [1], the “Skin density, After 4 weeks” value worked out at 1830.0 ns pixel and the “Skin thickness, After 4 weeks” value worked out at 0.954 ns mm. The “Development of low echogenic dark areas (dermis density)” value (after 4 weeks of treatment, ultrasound, p=0.08) is given as “Low echogenic dark areas develop”. Where the note is “after treatment for 4 weeks, ultrasound picture”, the “Cross-section of the skin: thickness and density vs baseline (figure)” value is “The skin gets thinner and the density decrease”. In addition, where the note is “baseline, before treatment, inner arm, ultrasound”, the “Skin density, Baseline” value was 1503.5 pixel. Further, for the setting “baseline, before treatment, inner arm, ultrasound, 10 healthy female volunteers”, the “Skin thickness, Baseline” value came to 1.122 mm. Moreover, where the note is “used for 4 weeks, FIG. 1 and FIG. 2”, the Skin atrophy result is “significant skin atrophy”.
